13 compounds from patent US8796289B2 (AbbVie Inc., priority 2011, dated 2014) can be followed below.

Sequence of GST-tagged-Wee1 kinase (P30291 whole entry): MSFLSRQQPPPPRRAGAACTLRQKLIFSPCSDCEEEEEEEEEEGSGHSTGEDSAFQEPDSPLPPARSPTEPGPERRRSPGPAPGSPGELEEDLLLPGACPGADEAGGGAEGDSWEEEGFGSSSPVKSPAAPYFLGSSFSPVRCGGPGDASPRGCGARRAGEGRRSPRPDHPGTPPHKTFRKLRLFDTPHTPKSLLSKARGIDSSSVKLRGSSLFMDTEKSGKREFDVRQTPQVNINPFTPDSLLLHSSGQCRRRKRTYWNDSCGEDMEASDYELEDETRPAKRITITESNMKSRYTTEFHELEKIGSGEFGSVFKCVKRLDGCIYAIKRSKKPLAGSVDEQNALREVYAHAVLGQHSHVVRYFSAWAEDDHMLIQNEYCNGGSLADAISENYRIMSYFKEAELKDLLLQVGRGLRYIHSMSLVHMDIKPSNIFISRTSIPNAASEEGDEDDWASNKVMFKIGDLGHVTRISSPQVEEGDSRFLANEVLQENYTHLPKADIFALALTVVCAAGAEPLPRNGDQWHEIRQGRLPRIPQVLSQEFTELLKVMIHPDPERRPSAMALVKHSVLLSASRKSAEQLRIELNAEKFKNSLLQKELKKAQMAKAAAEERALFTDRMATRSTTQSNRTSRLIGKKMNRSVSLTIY

For the assay, the target named is GST-tagged-Wee1 kinase (Homo sapiens, UniProt P30291). As to the kind of experiment: Wee1 time-resolved fluorescence equilibrium binding assay (displacement of Oregon Green-labeled ATP-competitive kinase probe). How it is done:
Wee1 kinase was assayed using a time-resolved fluorescence equilibrium binding assay monitoring displacement of a rapidly reversible Oregon Green-labeled ATP-competitive kinase probe (N-(2-(2-(2-(4-(4-(5-chloro-4-(2-(1-hydroxycyclobutyl)thiazol-5-yl)-1H-pyrrolo[2,3-b]pyridin-2-yl)phenyl)piperazin-1-yl)ethoxy)ethoxy)ethyl)-2′,7′-difluoro-3′,6′-dihydroxy-3-oxo-3H-spiro[isobenzofuran-1,9′-xanthene]-5-carboxamide) by competitive Wee1 inhibitors.
Usually Ki stands for a dissociation constant, usually derived from enzyme kinetics or from competition with a known ligand. A higher Ki goes with lower affinity. For `Cc1nn(-c2c(Cl)cccc2Cl)c(=O)c2cnc(Nc3ccc(N4CCN(CCCN(C)C)CC4)cc3)nc12` [Example 517, 6-(2,6-dichlorophenyl)-2-[(4-{4-[3-(dimethylamino)propyl]piperazin-1-yl}phenyl)amino]-8-methylpyrimido[4,5-d]pyridazin-5(6H)-one], the affinity, expressed as Ki, was 0.24 nM.

With `Cc1nn(-c2ccccc2Cl)c(=O)c2cnc(Nc3ccc(N4CCN(CCCN(C)C)CC4)cc3)nc12` [Example 518, 6-(2-chlorophenyl)-2-[(4-{4-[3-(dimethylamino)propyl]piperazin-1-yl}phenyl)amino]-8-methylpyrimido[4,5-d]pyridazin-5(6H)-one], the affinity, expressed as Ki, was 0.7 nM. Compound `Cc1nn(-c2c(Cl)cccc2Cl)c(=O)c2cnc(Nc3cccc(C(=O)N4CCC(N(C)C)CC4)c3)nc12` [Example 519, 6-(2,6-dichlorophenyl)-2-[(3-{[4-(dimethylamino)piperidin-1-yl]carbonyl}phenyl)amino]-8-methylpyrimido[4,5-d]pyridazin-5(6H)-one] had a Ki of 0.75 nM. Next, `Cc1nn(-c2c(Cl)cccc2Cl)c(=O)c2cnc(Nc3cccc(C(=O)NC4CCC(N(C)C)CC4)c3)nc12` (stereo not shown) [Example 520, 3-{[6-(2,6-dichlorophenyl)-8-methyl-5-oxo-5,6-dihydropyrimido[4,5-d]pyridazin-2-yl]amino}-N-[4-(dimethylamino)cyclohexyl]benzamide]: 0.45 nM; `Cc1nn(-c2c(Cl)cccc2Cl)c(=O)c2cnc(Nc3cccc(NC4CCN(C)CC4)c3)nc12` [Example 522, 6-(2,6-dichlorophenyl)-8-methyl-2-({3-[(1-methylpiperidin-4-yl)amino]phenyl}amino)pyrimido[4,5-d]pyridazin-5(6H)-one]: 0.13 nM; `Cc1nn(-c2c(Cl)cccc2Cl)c(=O)c2cnc(Nc3cccc(C(=O)NC4CCN(C)CC4)c3)nc12` [Example 523, 3-{[6-(2,6-dichlorophenyl)-8-methyl-5-oxo-5,6-dihydropyrimido[4,5-d]pyridazin-2-yl]amino}-N-(1-methylpiperidin-4-yl)benzamide]: 0.5 nM.

`Cc1cccc(Cl)c1-n1nc(C)c2nc(Nc3ccc(NC4CCNCC4)cc3)ncc2c1=O` [Example 524, 6-(2-chloro-6-methylphenyl)-8-methyl-2-{[4-(piperidin-4-ylamino)phenyl]amino}pyrimido[4,5-d]pyridazin-5(6H)-one] displayed a Ki of 0.3 nM. Regarding `Cc1nn(-c2c(Cl)cccc2Cl)c(=O)c2cnc(Nc3ccc(NC4CCNCC4)cc3)nc12` [Example 525, 6-(2,6-dichlorophenyl)-8-methyl-2-{[4-(piperidin-4-ylamino)phenyl]amino}pyrimido[4,5-d]pyridazin-5(6H)-one], the inhibition constant (Ki) is 0.2 nM. Next, `Cc1nn(-c2ccccc2Cl)c(=O)c2cnc(Nc3ccc(NC4CCNCC4)cc3)nc12` [Example 526, 6-(2-chlorophenyl)-8-methyl-2-{[4-(piperidin-4-ylamino)phenyl]amino}pyrimido[4,5-d]pyridazin-5(6H)-one]: 0.48 nM; `Cc1nn(-c2c(Cl)cccc2Cl)c(=O)c2cnc(Nc3cccc(C(=O)N4CCN(CCO)CC4)c3)nc12` [Example 527, 6-(2,6-dichlorophenyl)-2-[(3-{[4-(2-hydroxyethyl)piperazin-1-yl]carbonyl}phenyl)amino]-8-methylpyrimido[4,5-d]pyridazin-5(6H)-one]: 2.8 nM; `Cc1nn(-c2c(Cl)cccc2Cl)c(=O)c2cnc(Nc3cccc(C(=O)N4CCN(C)CC4)c3)nc12` [Example 528, 6-(2,6-dichlorophenyl)-8-methyl-2-({3-[(4-methylpiperazin-1-yl)carbonyl]phenyl}amino)pyrimido[4,5-d]pyridazin-5(6H)-one]: 2.4 nM. To `Cc1nn(-c2c(Cl)cccc2Cl)c(=O)c2cnc(Nc3cccc(C(=O)N4CCS(=O)(=O)CC4)c3)nc12` [Example 529, 6-(2,6-dichlorophenyl)-2-({3-[(1,1-dioxidothiomorpholin-4-yl)carbonyl]phenyl}amino)-8-methylpyrimido[4,5-d]pyridazin-5(6H)-one] belongs 9.4 nM; to `Cc1nn(-c2c(Cl)cccc2Cl)c(=O)c2cnc(Nc3cccc(C(=O)NC4CCNCC4)c3)nc12` [Example 530, 3-{[6-(2,6-dichlorophenyl)-8-methyl-5-oxo-5,6-dihydropyrimido[4,5-d]pyridazin-2-yl]amino}-N-(piperidin-4-yl)benzamide], 0.3 nM.
